# According to PubChem BioAssay AID2060503 (Molecular Pharmacology Branch, DTP, NCI, 2025):
# System: 817829-284-R-J1-PDC complex spheroids, viability
# Assay: Anticancer human tumor 817829-284-R-J1-PDC patient-derived colon adenocarcinoma cell line growth inhibition [GQUAD]
# Conditions: for IC50: curve of first compound; for viability, T/C: stronger effect = lower value
# Method in brief: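 Viability of tumor cells grown as complex spheroids with endothelial and stromal cells, exposed to drug combinations. Top concentration at or near clinical Cmax (else 10 microM), diluted in half-log increments.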
# [1] = second compound 0.0316 µM, first compound 0.0316 µM
# [2] = second compound 0.0316 µM, first compound 0.1 µM
# [3] = second compound 0.0316 µM, first compound 0.316 µM
# [4] = second compound 0.0316 µM, first compound 1 µM
# [5] = second compound 0.0316 µM, first compound 3.16 µM
# [6] = second compound 0.0316 µM, first compound 10 µM
# [7] = second compound 0.1 µM, first compound 0.0316 µM
# [8] = second compound 0.1 µM, first compound 0.1 µM
# [9] = second compound 0.1 µM, first compound 0.316 µM
# [10] = second compound 0.1 µM, first compound 1 µM
# [11] = second compound 0.1 µM, first compound 3.16 µM
# [12] = second compound 0.1 µM, first compound 10 µM
# [13] = second compound 0.316 µM, first compound 0.0316 µM
# [14] = second compound 0.316 µM, first compound 0.1 µM
# [15] = second compound 0.316 µM, first compound 0.316 µM
# [16] = second compound 0.316 µM, first compound 1 µM
# [17] = second compound 0.316 µM, first compound 3.16 µM
# [18] = second compound 0.316 µM, first compound 10 µM
# [19] = second compound 1 µM, first compound 0.0316 µM
# [20] = second compound 1 µM, first compound 0.1 µM
# [21] = second compound 1 µM, first compound 0.316 µM
# [22] = second compound 1 µM, first compound 1 µM
# [23] = second compound 1 µM, first compound 3.16 µM
# [24] = second compound 1 µM, first compound 10 µM
# [25] = second compound 3.16 µM, first compound 0.0316 µM
# [26] = second compound 3.16 µM, first compound 0.1 µM
# [27] = second compound 3.16 µM, first compound 0.316 µM
# [28] = second compound 3.16 µM, first compound 1 µM
# [29] = second compound 3.16 µM, first compound 3.16 µM
# [30] = second compound 3.16 µM, first compound 10 µM
# [31] = second compound 10 µM, first compound 0.0316 µM
# [32] = second compound 10 µM, first compound 0.1 µM
# [33] = second compound 10 µM, first compound 0.316 µM
# [34] = second compound 10 µM, first compound 1 µM
# [35] = second compound 10 µM, first compound 3.16 µM
# [36] = second compound 10 µM, first compound 10 µM
# 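Note: spheroids exposed to agents for 7 days before readout.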
# 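Throughout, for viability, T/C: percent viability relative to DMSO vehicle control taken as 100%.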
smiles,measurement,setting,value
C=CC(=O)N1CCN(c2nc(=O)n(-c3c(C)ccnc3C(C)C)c3nc(-c4c(O)cccc4F)c(F)cc23)C(C)C1 (centres undefined) + Cc1cnc(CNC(=O)c2c(=O)c3ccc(N4CCCN(C)CC4)nc3n3c2sc2ccccc23)cn1,IC50,second compound 0.0316 µM,7.98 µM
same,IC50,second compound 0.1 µM,< 0.0316 µM
same,IC50,second compound 0.316 µM,< 0.0316 µM
same,IC50,second compound 1 µM,< 0.0316 µM
same,IC50,second compound 3.16 µM,< 0.0316 µM
same,IC50,second compound 10 µM,< 0.0316 µM
same,"viability, T/C",[1],87.4%
same,"viability, T/C",[2],59.1%
same,"viability, T/C",[3],90.8%
same,"viability, T/C",[4],55.7%
same,"viability, T/C",[5],76.5%
same,"viability, T/C",[6],44.3%
same,"viability, T/C",[7],34.2%
same,"viability, T/C",[8],38.1%
same,"viability, T/C",[9],30.2%
same,"viability, T/C",[10],34.2%
same,"viability, T/C",[11],29.9%
same,"viability, T/C",[12],26.8%
same,"viability, T/C",[13],26.6%
same,"viability, T/C",[14],28.8%
same,"viability, T/C",[15],28.4%
same,"viability, T/C",[16],24.9%
same,"viability, T/C",[17],29.5%
same,"viability, T/C",[18],20.5%
same,"viability, T/C",[19],18.8%
same,"viability, T/C",[20],27.1%
same,"viability, T/C",[21],22.6%
same,"viability, T/C",[22],21.1%
same,"viability, T/C",[23],24.3%
same,"viability, T/C",[24],19.6%
same,"viability, T/C",[25],21.8%
same,"viability, T/C",[26],21.3%
same,"viability, T/C",[27],22.5%
same,"viability, T/C",[28],19.1%
same,"viability, T/C",[29],16.7%
same,"viability, T/C",[30],16.9%
same,"viability, T/C",[31],0.19%
same,"viability, T/C",[32],0.21%
same,"viability, T/C",[33],0.19%
same,"viability, T/C",[34],0.19%
same,"viability, T/C",[35],0.2%
same,"viability, T/C",[36],0.19%
O=C(c1cc(Cc2n[nH]c(=O)c3ccccc23)ccc1F)N1CCN(C(=O)C2CC2)CC1 + Cc1[nH]c2ccc(F)cc2c1-c1nc2c3cccnc3c3ncccc3c2[nH]1,IC50,second compound 0.0316 µM,> 10 µM
same,IC50,second compound 0.1 µM,> 10 µM
same,IC50,second compound 0.316 µM,> 10 µM
same,IC50,second compound 1 µM,> 10 µM
same,IC50,second compound 3.16 µM,4.16 µM
same,IC50,second compound 10 µM,1.07 µM
same,"viability, T/C",[1],103%
same,"viability, T/C",[2],85.7%
same,"viability, T/C",[3],106%
same,"viability, T/C",[4],87.3%
same,"viability, T/C",[5],97.2%
same,"viability, T/C",[6],63.3%
same,"viability, T/C",[7],94%
same,"viability, T/C",[8],109%
same,"viability, T/C",[9],88.3%
same,"viability, T/C",[10],98.8%
same,"viability, T/C",[11],95.5%
same,"viability, T/C",[12],60%
same,"viability, T/C",[13],97.7%
same,"viability, T/C",[14],99.7%
same,"viability, T/C",[15],97.9%
same,"viability, T/C",[16],96.6%
same,"viability, T/C",[17],95.4%
same,"viability, T/C",[18],60.8%
same,"viability, T/C",[19],85.9%
same,"viability, T/C",[20],115%
same,"viability, T/C",[21],97.8%
same,"viability, T/C",[22],97.4%
same,"viability, T/C",[23],89.4%
same,"viability, T/C",[24],62%
same,"viability, T/C",[25],98.9%
same,"viability, T/C",[26],98.5%
same,"viability, T/C",[27],97.3%
same,"viability, T/C",[28],93.8%
same,"viability, T/C",[29],54.5%
same,"viability, T/C",[30],35.6%
same,"viability, T/C",[31],45.4%
same,"viability, T/C",[32],46.9%
same,"viability, T/C",[33],56.7%
same,"viability, T/C",[34],54.7%
same,"viability, T/C",[35],37.6%
same,"viability, T/C",[36],20.7%
